Results published in US20260109690A1, “HDAC6 INHIBITORS AND METHOD OF THEIR USE” (Baerenkraft Therapeutics, LLC., priority 2024, published 2026).
Like-named read-outs stand apart in the source and are kept apart here. One block for each compound: values may come before it.

Key:
HDAC6 = target: T1, HDAC6 (Homo sapiens, UniProt Q9UBN7); experiment: Biochemical HDAC6 inhibitory activity assay
T1 sequence (Q9UBN7 1-1215): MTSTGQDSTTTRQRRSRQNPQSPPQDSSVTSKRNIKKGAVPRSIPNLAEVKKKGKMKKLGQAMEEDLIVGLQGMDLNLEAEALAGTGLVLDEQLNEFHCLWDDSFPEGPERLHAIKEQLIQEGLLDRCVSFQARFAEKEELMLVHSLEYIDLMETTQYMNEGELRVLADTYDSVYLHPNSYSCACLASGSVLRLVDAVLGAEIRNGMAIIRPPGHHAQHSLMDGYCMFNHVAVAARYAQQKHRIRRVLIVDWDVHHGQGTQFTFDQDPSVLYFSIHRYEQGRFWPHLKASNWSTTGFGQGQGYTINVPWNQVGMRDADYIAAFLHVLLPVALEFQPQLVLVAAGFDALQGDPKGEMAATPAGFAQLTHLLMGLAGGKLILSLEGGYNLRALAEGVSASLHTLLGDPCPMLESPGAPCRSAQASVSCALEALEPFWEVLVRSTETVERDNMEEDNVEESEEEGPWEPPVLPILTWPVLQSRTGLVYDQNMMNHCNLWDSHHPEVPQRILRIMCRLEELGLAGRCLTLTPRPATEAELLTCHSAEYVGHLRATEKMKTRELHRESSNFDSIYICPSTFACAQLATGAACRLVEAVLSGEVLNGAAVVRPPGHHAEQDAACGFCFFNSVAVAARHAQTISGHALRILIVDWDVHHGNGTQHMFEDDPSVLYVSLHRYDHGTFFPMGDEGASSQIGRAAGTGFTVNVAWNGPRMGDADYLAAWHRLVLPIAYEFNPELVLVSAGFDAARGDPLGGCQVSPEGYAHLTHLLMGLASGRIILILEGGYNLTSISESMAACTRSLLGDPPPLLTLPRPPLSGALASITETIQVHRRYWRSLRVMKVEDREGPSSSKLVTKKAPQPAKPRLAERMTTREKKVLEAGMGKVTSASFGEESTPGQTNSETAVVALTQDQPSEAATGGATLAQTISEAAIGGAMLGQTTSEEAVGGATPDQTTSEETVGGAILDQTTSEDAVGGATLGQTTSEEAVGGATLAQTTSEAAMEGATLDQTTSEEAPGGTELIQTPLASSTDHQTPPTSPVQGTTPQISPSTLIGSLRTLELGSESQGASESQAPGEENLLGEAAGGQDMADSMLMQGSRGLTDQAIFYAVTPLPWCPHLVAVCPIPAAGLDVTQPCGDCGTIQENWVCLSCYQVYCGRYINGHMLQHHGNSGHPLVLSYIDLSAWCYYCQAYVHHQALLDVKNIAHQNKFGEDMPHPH

[1] = system: B6SJL.SOD1-G93A transgenic mouse model of amyotrophic lateral sclerosis; experiment: ALS mouse model: rotarod test; assay type: in vivo, mice
Protocol: The Rotarod test was used for motor coordination assessment in mice. Animals were accustomed to the rotarod at 10 rpm for 300 s followed by training for 2 days at accelerated rpm (4-40 for 300 s) with 15 minutes inter trial interval. On the day of the test, animals were subjected to rotarod test at 4-40 rpm for 300 s with 15 minutes inter trial interval. During the training and test, the latency to fall off the rod was recorded. A total of 3 trials were recorded, data was averaged and analyzed.
Note: Behavioral tests were performed once in two weeks, i.e. at week 10, 12, 14 and 16.

HDAC4 = HDAC4 (Homo sapiens, UniProt P56524); experiment: HDAC selectivity panel: HDAC4; assay type: biochemical
HDAC9 = HDAC9 (Homo sapiens, UniProt Q9UKV0); experiment: HDAC selectivity panel: HDAC9; assay type: biochemical
HDAC3 = HDAC3 (Homo sapiens, UniProt O15379); experiment: HDAC selectivity panel: HDAC3; assay type: biochemical
Tg2576 AD Disease Mice = experiment: Tg2576 study: elevated plus maze; assay type: in vivo; settings: for Elevated Plus Maze time spent in Closed arms / Elevated Plus Maze time spent in Open arms: G3 Tg2576 mice
Protocol: Mice were weighed and randomized into groups. All the test formulations were freshly administered to respective animals of each group as per body weight. Basal behavior of the animals was recorded and analyzed in open field, Y-Maze, and EPM. Post basal behavior, animals were treated with compound I-16 for the duration of 3 months (i.e., from 6 months until 9 months). During the treatment duration, animals were subjected to different behavioral tests such as OFT, Y-maze, and EPM at 7, 8 and 9 months. At the end of experiments (i.e., at 9 months) animals were subjected to Morris water maze test.
Animals were subjected to elevated plus maze to evaluate anxiety-like behavior. Animals were placed in the centre of the arena with two open and two closed arms facing towards closed arms and allowed to explore the arena for a duration of 5 minutes. Animal behavior was video recorded using overhead video recording camera. Total time spent in the closed and open arms were quantified using automated animal tracking software Ethovision XT.

[2] = 50 mg/kg then 80 mg/kg from day 36 p.o., 8th months
[3] = 50 mg/kg then 80 mg/kg from day 36 p.o., 9th months
[4] = 6th months (Basal, before treatment)

Sequence of HDAC9 (Q9UKV0 whole entry, species assumed): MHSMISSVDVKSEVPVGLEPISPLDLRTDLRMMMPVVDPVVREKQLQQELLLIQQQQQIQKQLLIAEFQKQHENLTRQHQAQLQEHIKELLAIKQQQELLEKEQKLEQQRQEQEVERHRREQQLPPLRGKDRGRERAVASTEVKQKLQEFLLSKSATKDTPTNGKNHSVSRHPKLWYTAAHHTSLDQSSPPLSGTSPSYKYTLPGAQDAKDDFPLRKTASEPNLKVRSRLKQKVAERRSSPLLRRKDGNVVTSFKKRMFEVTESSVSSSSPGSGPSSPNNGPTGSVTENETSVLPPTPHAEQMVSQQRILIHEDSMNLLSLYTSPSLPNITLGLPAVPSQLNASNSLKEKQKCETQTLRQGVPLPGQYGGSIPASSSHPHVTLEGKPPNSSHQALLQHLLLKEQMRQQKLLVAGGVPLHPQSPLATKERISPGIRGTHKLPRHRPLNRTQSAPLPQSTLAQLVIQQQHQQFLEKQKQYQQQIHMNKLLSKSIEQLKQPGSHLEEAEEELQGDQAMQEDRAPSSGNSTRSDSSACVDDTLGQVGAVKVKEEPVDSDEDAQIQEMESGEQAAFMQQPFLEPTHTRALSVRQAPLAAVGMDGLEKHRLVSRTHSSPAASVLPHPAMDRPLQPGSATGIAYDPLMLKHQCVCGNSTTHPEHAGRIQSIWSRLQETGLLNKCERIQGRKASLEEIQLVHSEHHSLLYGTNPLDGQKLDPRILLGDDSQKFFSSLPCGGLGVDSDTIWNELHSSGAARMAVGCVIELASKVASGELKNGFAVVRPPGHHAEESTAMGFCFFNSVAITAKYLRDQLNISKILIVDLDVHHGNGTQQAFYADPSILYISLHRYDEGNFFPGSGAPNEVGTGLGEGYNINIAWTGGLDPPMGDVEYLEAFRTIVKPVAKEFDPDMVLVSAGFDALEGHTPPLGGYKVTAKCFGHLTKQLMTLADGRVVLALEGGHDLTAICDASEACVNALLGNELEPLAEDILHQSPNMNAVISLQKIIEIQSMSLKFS
Sequence of HDAC3 (O15379 whole entry, species assumed): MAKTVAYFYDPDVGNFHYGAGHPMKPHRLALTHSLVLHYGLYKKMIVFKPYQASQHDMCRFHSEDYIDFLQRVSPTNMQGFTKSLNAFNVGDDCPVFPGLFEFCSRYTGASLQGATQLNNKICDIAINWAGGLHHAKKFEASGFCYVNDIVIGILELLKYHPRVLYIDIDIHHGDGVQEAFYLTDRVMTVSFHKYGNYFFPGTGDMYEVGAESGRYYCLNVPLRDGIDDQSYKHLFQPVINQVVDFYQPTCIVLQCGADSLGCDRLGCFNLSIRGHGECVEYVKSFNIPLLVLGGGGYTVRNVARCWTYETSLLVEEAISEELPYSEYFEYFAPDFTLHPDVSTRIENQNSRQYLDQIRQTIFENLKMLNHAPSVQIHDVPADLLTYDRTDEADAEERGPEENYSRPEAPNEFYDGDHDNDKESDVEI
Sequence of HDAC3 (Q9Y618 395-489 partner limits assumed, species assumed): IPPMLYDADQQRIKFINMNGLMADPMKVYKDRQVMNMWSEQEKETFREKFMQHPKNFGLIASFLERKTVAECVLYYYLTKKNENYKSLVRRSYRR
Sequence of HDAC4 (P56524 whole entry, species assumed): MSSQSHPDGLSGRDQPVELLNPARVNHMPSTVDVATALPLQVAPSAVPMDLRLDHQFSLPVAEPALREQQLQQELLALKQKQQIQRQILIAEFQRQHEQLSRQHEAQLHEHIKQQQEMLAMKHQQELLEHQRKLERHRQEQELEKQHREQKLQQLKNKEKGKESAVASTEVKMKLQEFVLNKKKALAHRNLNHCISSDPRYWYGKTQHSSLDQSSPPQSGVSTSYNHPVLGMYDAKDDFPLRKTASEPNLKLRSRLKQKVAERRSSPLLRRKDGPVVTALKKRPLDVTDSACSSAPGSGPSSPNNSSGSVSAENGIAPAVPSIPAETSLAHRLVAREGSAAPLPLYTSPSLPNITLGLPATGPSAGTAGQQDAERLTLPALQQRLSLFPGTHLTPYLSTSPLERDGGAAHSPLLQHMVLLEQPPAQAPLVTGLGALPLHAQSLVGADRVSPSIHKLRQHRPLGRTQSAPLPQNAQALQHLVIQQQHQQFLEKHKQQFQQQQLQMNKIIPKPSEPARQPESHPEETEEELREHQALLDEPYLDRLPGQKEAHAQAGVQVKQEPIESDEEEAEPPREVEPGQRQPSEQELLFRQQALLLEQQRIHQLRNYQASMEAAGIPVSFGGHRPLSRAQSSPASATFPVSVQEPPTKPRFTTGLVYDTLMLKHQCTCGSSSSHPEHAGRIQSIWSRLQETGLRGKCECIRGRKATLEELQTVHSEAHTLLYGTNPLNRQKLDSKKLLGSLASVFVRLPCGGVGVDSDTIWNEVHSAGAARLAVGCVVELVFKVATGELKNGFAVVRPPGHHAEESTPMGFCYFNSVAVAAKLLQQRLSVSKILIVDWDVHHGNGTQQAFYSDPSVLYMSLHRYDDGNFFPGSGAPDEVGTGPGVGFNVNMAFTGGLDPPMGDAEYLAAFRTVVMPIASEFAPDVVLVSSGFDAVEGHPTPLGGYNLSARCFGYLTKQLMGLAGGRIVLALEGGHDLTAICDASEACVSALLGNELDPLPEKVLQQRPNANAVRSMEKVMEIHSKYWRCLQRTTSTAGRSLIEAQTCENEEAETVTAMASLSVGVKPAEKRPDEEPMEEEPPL

SMILES: CC1CN(Cc2ccc(Nc3nccc(-c4ccc(C(=O)NO)cc4)n3)cc2F)CCO1 (racemic) [Compound I-8, 4-(2-((3-fluoro-4-((2-methylmorpholino)methyl)phenyl)amino)pyrimidin-4-yl)-N-hydroxybenzamide]
IC50 (HDAC6; 10-dose IC50 mode, in singlet, 3-fold serial dilution, test compound starting at 100 millimolar, read-out: HDAC6 IC50): 7.32 nM | EC50 (HDAC6; 10-dose in vitro test (FIG. 1)): 7.32 nM | selectivity for HDAC6 compared to other HDACs (HDAC6; against 11 HDACs): marked selectivity for HDAC6 | IC50 (HDAC6; read-out: HDAC6 IC50): < 1000 nM | Rotarod Test latency to fall ([1]; G3 15 mg/kg p.o. QD, Week 10): 137.59 ± 15.62 s | Rotarod Test latency to fall ([1]; G3 15 mg/kg p.o. QD, Week 12): 119.19 ± 18.07 s | Rotarod Test latency to fall ([1]; G3 15 mg/kg p.o. QD, Week 14): 88.63 ± 10.57 s | Rotarod Test latency to fall ([1]; G3 15 mg/kg p.o. QD, Week 16): 34.04 ± 12.74 s | Rotarod Test latency to fall ([1]; G4 30 mg/kg (50 mg/kg from day 34) p.o. QD, Week 10): 140 ± 13.47 s | Rotarod Test latency to fall ([1]; G4 30 mg/kg (50 mg/kg from day 34) p.o. QD, Week 12): 120.58 ± 13.17 s | Rotarod Test latency to fall ([1]; G4 30 mg/kg (50 mg/kg from day 34) p.o. QD, Week 14): 86 ± 16.17 s | Rotarod Test latency to fall ([1]; G4 30 mg/kg (50 mg/kg from day 34) p.o. QD, Week 16): 39.79 ± 20.43 s | IC50 (HDAC4): 11100 nM | IC50 (HDAC9): 22000 nM | IC50 (HDAC3): 990 nM

IC50 (HDAC6; read-out: HDAC6 IC50): < 1000 nM | IC50 (HDAC6; unit inferred, read-out: IC50 against HDAC6 (FIG. 3)): 12.4 nM
SMILES: C[C@@H]1CN(Cc2ccc(Nc3nccc(-c4ccc(C(=O)NO)cc4)n3)cc2F)CCO1 [Compound I-16, (R)-4-(2-((3-fluoro-4-((2-methylmorpholino)methyl)phenyl)amino)pyrimidin-4-yl)-N-hydroxybenzamide]
Elevated Plus Maze: time spent in open and closed arms compared to G2 (Tg2576 + vehicle) (Tg2576 AD Disease Mice; G3 Tg2576 AD disease mice, 50 mg/kg): did not show any significant difference | Elevated Plus Maze time spent in Closed arms (Tg2576 AD Disease Mice; 50 mg/kg p.o., 7th months): 165.48 ± 28.89 | Elevated Plus Maze time spent in Open arms (Tg2576 AD Disease Mice; 50 mg/kg p.o., 7th months): 73.82 ± 27.58 | Elevated Plus Maze time spent in Closed arms (Tg2576 AD Disease Mice; [2]): 245.27 ± 12.41 | Elevated Plus Maze time spent in Open arms (Tg2576 AD Disease Mice; [2]): 54.73 ± 12.41 | Elevated Plus Maze time spent in Closed arms (Tg2576 AD Disease Mice; [3]): 241.46 ± 11.16 | Elevated Plus Maze time spent in Open arms (Tg2576 AD Disease Mice; [3]): 58.55 ± 11.16 | Elevated Plus Maze time spent in Closed arms (Tg2576 AD Disease Mice; [4]): 110.86 ± 16.69 | Elevated Plus Maze time spent in Open arms (Tg2576 AD Disease Mice; [4]): 82.94 ± 14.23
